Source: ChEMBL document CHEMBL3507680, “University of Dundee, Gates Library screen for HepG2 cell viability”

Assay: Human HepG2 cell viability assay in 384 well format
Format: toxicity, cell-based
Design: dose 125 nL, time 70.5 hour; cytotoxicity at 70.5 h: concentration not given beside the values
Settings: HepG2 cells, read-out: Inhibition

Row | Compound | cytotoxicity at 70.5 h
1 | COCCNC(=O)[C@@H]1CCO[C@@H]2CCN(c3ccc(C)nn3)C[C@@H]21 | -15.8%
2 | Cc1ccc(N2C[C@H]3OCC[C@H]3[C@H](C(=O)NC3CCCC3)C2)nn1 | -12.6%
3 | O=C1[C@@H]2CCN(Cc3ccoc3)C[C@@H]2OCCN1c1cccnc1 | -13.5%
4 | Cc1ccc(N2C[C@H]3OCC[C@H]3[C@H](C(=O)NCc3ccco3)C2)nn1 | -7.31%
5 | COCCNC(=O)[C@@H]1CN(c2ncccn2)C[C@H]2OCC[C@H]21 | -2.54%
6 | CCCNC(=O)c1cc(-c2cnc(N3CCCC3)nc2)cn1C | 3.66%
7 | CCC(=O)N1CCC2(COCc3cnc(N4CCOCC4)nc32)C1 (centres undefined) | 1.55%
8 | COCC(=O)N1CCC2(COCc3cnc(N4CCOCC4)nc32)C1 (centres undefined) | 6.48%
9 | O=C(CC1CC1)N1CCC2(CC1)CN(c1ccsc1)C(=O)CO2 | -2.64%
10 | CNc1ncc(CN(C)C(=O)c2cccc(CC3CCNCC3)c2)cn1 | 35%
11 | COC[C@@H]1CCCN1C(=O)CCc1c(C)nn(C)c1C | -2.05%
12 | CNC(=O)c1n[nH]c2c1C(c1cccc3nsnc13)CC(=O)N2 (centres undefined) | -3.59%
13 | CCc1ncc(C(=O)N(CCOC)Cc2ccccc2F)cn1 | -2.26%
14 | Cc1nc(N2CCCC2C(=O)NC(C)(C)CO)nc2ccccc12 (centres undefined) | -7.7%
15 | Fc1ccc(CC2CCN(Cc3cscn3)CC2)cc1 | -14.2%
16 | O=C1NCCCc2[nH]c(Cc3cccc(Cl)c3)nc21 | 0.226%
17 | O=C(CCc1ccccc1F)N1CCCC(OCc2cccnc2)C1 (centres undefined) | -9.56%
18 | COC(=O)c1cccc(-c2c[nH]c(C)n2)c1 | -7.21%
19 | CSc1ncccc1C(=O)N(C)CCc1scnc1C | -8.88%
20 | CC(C)c1nnc(N2C[C@@H]3CC[C@H](C2)N(Cc2ccccc2)C3)s1 | -4.82%
21 | COc1cc(N(C)Cc2noc(CC(C)C)n2)ncn1 | 20.1%
22 | Cc1cc2cccc(C(=O)N3CCOC(CCN(C)C)C3)c2o1 (centres undefined) | -17.3%
23 | CN1CCNC(=O)C1CC(=O)NCCc1cnn(-c2ccccc2)c1 (centres undefined) | 19.9%
24 | CN(Cc1ccccc1CN1CCCC1)C(=O)c1c(O)cccc1O | 7.79%
25 | COCCN1CCN(C(=O)C(c2cccc(F)c2)N(C)C)CC1 (centres undefined) | 1.27%
26 | Cc1nn(C)c2nc(N(Cc3cnn(C)c3)C3CCCCC3)sc12 | 7.12%
27 | NCCO[C@H]1C[C@@H](O)C12CCN(Cc1c(F)cccc1F)CC2 | -7.05%

Row | Compound | cytotoxicity at 70.5 h
28 | Cc1cnc(C)c(-c2cc(O)c3c(c2)CN(c2nccs2)CCO3)n1 | -5.12%
29 | Cc1cnc(NC(C)Cc2cnccn2)nc1N(C)C (centres undefined) | -4.28%
30 | COc1cccc(OCCn2c(C)c(C)oc2=O)c1 | 0.585%
31 | O=C(c1ccoc1)N1CCc2ncnc(NCc3ccccn3)c2CC1 | 25.5%
32 | CN(Cc1ccc(C2CC(=O)Nc3n[nH]cc32)o1)S(C)(=O)=O (centres undefined) | 9.86%
33 | CCc1cc(NCCCN(C)C2CCCC2)ncn1 | -11.3%
34 | NC(=O)CN1CCC(C(=O)NCc2ccc3nonc3c2)CC1 | -14.2%
35 | Cc1ccc2[nH]c(C(=O)N3CCC4(CC3)C(=O)NCCN4C)nc2c1 | -6.83%
36 | O=C(O)c1cn(CC2CCCN(c3cnc4ccccc4n3)C2)nn1 (centres undefined) | -3.54%
37 | O=C(Nc1cnn(CC(=O)N2CCCCO2)c1)c1ccsc1 | -2.35%
38 | CC(C)c1noc(C2CCCN2C(=O)Cc2cn3ccsc3n2)n1 (centres undefined) | -9.25%
39 | CC(C)(CN1CCC(Cc2cccc(C(=O)O)c2)C1)N1CCOCC1 (centres undefined) | -9.68%
40 | CCc1cc(NCCNC(=O)c2cccnc2)n2nc(C)c(C)c2n1 | 21%
41 | CN(C(=O)COc1ccc(F)cc1)[C@@H]1CS(=O)(=O)C[C@H]1O | -0.138%
42 | CCc1noc(CN(C)C(=O)C2COc3ccccc3C2)n1 (centres undefined) | -0.861%
43 | CSc1ncccc1C(=O)N1CCC2(CC1)c1nc[nH]c1CCN2C | 7.45%
44 | CCCC(CNc1cc(C(C)C)nc2ccnn12)N(C)C (centres undefined) | 39.1%
45 | Cc1cc(N[C@H](CO)c2ccccc2)n2nc(C)cc2n1 | -1.18%
46 | COc1ccc(CC(=O)N2CC[C@@]3(O)CCNC[C@H]3C2)c(OC)c1 | -7.58%
47 | Cn1ccnc1SCCNC(=O)CC1CCc2ccccc21 (centres undefined) | -10.6%
48 | Cc1ccc(C(C(=O)N2CCC(Cc3noc(C)n3)CC2)N(C)C)cc1 (centres undefined) | -8.55%
49 | N[C@H]1CCCN(C(=O)c2cnc(COc3ccccc3)nc2O)C1 | -9.44%
50 | CSCc1nc(CCNC(=O)C(N)c2c(C)n[nH]c2C)cs1 (centres undefined) | -3.99%
51 | CCCN(Cc1cccnc1)C(=O)C1CCN(Cc2ccco2)CC1 | -2.7%
52 | Cc1nc(CN2CCN(Cc3cc4n(n3)CCNC4)CC2)cs1 | 22.5%
53 | CC(=O)C1(c2ccccc2)CCN(C(=O)c2ccc3nnnn3c2)CC1 | 2.77%
54 | CSCCc1c(-c2ccccc2)ncn1CCNc1cccnc1 | -8.03%

Row | Compound | cytotoxicity at 70.5 h
55 | COc1ccc(OC)c(C(=O)N2C[C@H]3CC[C@@H]2CN(C)C3)c1 | 20.2%
56 | COc1cccc2c1OCC(CNC(=O)Cc1cnccn1)C2 (centres undefined) | -3.59%
57 | NCCC1CN(c2nc(-c3ccccc3)nc3c2CCNC3)CCO1 (centres undefined) | 2.96%
58 | Cc1c(CN2C[C@H](O)[C@@H](N3CCOCC3)C2)[nH]c2ccc(F)cc12 | 12.2%
59 | Cc1cnc(N2CCCOC(CN3CCCCC3)C2)nc1 (centres undefined) | -5.72%
60 | CSCCC(=O)N1CCC(c2nnc(CN(C)CCO)n2C)CC1 | -2.23%
61 | OCCCN1CCc2onc(C(c3ccccc3)c3ccccc3)c2C1 | 6.85%
62 | O=C1CCCN1CCN1CC=C(c2cnn(C3CCS(=O)(=O)C3)c2)CC1 (centres undefined) | -10.3%
63 | CCc1nnc(CN(CC)C(=O)C2CC(=O)N(C3CCCC3)C2)o1 (centres undefined) | -10.6%
64 | CCC(C(=O)NC1(COC)CCCC1)n1cccn1 (centres undefined) | 5.08%
65 | COCCNC(=O)C1CN(Cc2csc(C)n2)Cc2ccnn2C1 (centres undefined) | -8.82%
66 | CCn1cc2c(n1)CN(Cc1cnn(C)c1)CC2COCC1CC1 (centres undefined) | -11.6%
67 | CCS(=O)(=O)N1CC[C@H]2C(=O)N(Cc3cccnc3)CCO[C@H]2C1 | -13.9%
68 | CN(C)C(=O)[C@H]1C[C@@H]2CN(CCc3ccccc3)C[C@H]1O2 | -6.59%
69 | O=C1[C@@H]2CCN(Cc3ccoc3)C[C@@H]2OCCN1Cc1cccc(F)c1 | -4.35%
70 | CN(C)C(=O)NC1COC2(CCN(Cc3ccc(Cl)c(F)c3)CC2)C1 (centres undefined) | -8.77%
71 | CO[C@@H]1CCN(Cc2nccs2)C[C@@H]1Cc1cccc(C)c1 | -3.84%
72 | c1ccc(C[C@H]2CN(Cc3nccs3)CC[C@@H]2OCC2CC2)cc1 | -2.59%
73 | O=C(c1ccco1)N1C[C@@H]2CCN(c3cccnc3)C[C@@H]2C1 | -11.6%
74 | c1cnc(N2CCO[C@H]3CN(Cc4csnn4)C[C@H]32)nc1 | -11.7%
75 | Cc1ccc(CN2CCn3c(C(=O)N(C)C)cnc3C2)cc1 | 2.94%
76 | COc1ccc(CN2CCn3c(C(=O)N(C)C)cnc3C2)cc1 | -3.13%
77 | CCOCCN1Cc2ncn(C)c2C(COCC2CCOCC2)C1 (centres undefined) | -7.05%
78 | CN(C)C(=O)c1cnc2n1CCN(Cc1cccnc1)C2 | 4.75%
79 | Cc1ccc(N2CCO[C@H]3CN(Cc4ccccn4)C[C@H]32)nn1 | -9.99%
